Laboratory results from PMC5608804, “Stepwise Evolution Improves Identification of Diverse Peptides Binding to a Protein Target” (Scientific Reports, 2017).
Square brackets hold non-standard residues; d marks the D form. Ends that are not written are not given here. Peptide text beside a SMILES is read from it.

Experiments:
[1] = target: T1, streptavidin (Streptomyces avidinii, UniProt P22629); assay: SPR analysis of peptide binding to immobilized streptavidin (Biacore X100); conditions: for type of SPR binding kinetics: SPR sensorgrams, immobilized streptavidin
T1 construct: purchased GE Healthcare (Little Chalfont, UK)
T1 sequence (P22629 25-183): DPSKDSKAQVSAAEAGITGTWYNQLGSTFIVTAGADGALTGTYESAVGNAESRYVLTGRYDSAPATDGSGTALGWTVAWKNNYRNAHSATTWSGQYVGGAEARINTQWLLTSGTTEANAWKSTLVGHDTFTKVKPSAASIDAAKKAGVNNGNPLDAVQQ
Experimental: SPR analysis of peptide binding to streptavidin was performed with streptavidin immobilized on a chip and peptides in solution (see Materials and Methods).
Surface Plasmon Resonance (SPR) experiments were performed using a Biacore X100 instrument (GE Healthcare). 60 µl of 100 µg/ml streptavidin in 10 mM Na-acetate (pH 5.0) was immobilized to flow cell 2 (Fc2) of a sensor chip CM5 (GE Healthcare) using the Amine Coupling Kit (GE Healthcare) at 20 °C for 6 min. Peptide stock solutions were prepared at 5 or 10 mM in H2O and diluted in HBS-EP+ (GE Healthcare) buffer. Peptide binding was performed in a multiple kinetics mode using HBS-EP+ as a running buffer and 0.2 M NaCl, 10 mM NaOH, or 10 mM HCl-glycine (pH 1.7) as the regeneration buffer. Binding kinetics parameters were calculated using Biacore X100 software.

[2] = target: T1, streptavidin; assay: Cy5-streptavidin binding on cyclic discovery array, paired cyclic/linear 5-mer L/D-peptides; conditions: Cy5-SA, three independent replicates on the same array, cyclic vs linear features
Excerpt: To identify cyclic peptide binders to streptavidin, Cy5-SA was bound to an array library of 388,962 5-mer L/D-peptides. The pentameric peptides were composed of a 4-mer peptide synthesized with a combination of uncharged L- and D-amino acids and a γ-Glu: this residue enabled synthesis of both head-to-tail cyclic and linear peptides, respectively, for each peptide through either allyl ester or t-butyl ester C-terminal protection (see Materials and Methods for amino acid composition and cyclization protocol). The paired cyclic and linear array features were spatially positioned side-by-side to control for potential variations in cyclization yield for each peptide. The fluorescence signal intensities across three independent replicates on the same array were compared and the ratio cyclic to linear peptide of signal intensities was compared.
The combined cyclic and linear peptide libraries were synthesized starting with either the allyl ester (OAll) or t-butyl ester, respectively, of N-(2-nitrophenyl)propoxycarbonyl (NPPOC)-protected glutamate (γ-Glu) linked to the array surface through the carboxylic acid side chain. […]
Cy5 fluorescence intensity of the arrays was measured with an MS200 scanner (Roche NimbleGen, Madison, WI) at resolution 2 µm, wavelength 635 nm, gain 25%, and laser intensity 100%. […]

[3] = target: T1, streptavidin; assay: Cy5-streptavidin binding on HotSpot discovery array, 5-mer L-peptide library; conditions: for S/B: signal to background ratio
Procedure, shortened: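 Array of 2,476,099 5-mer peptides (19 amino acids, no cysteine) with Gly-Ser linkers, probed overnight at 4 °C with 0.5 µg/ml Cy5-streptavidin in Tris pH 7.4 buffer containing casein or BSA plus Tween-20. Cy5 fluorescence read at 635 nm; peptides selected by signal-to-background >4 across three arrays.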

[4] = 5-mer L-peptide library array, Cy5-streptavidin, from average of three arrays
[5] = 5-mer L-peptide library array, Cy5-streptavidin
[6] = 5-mer L-peptide library array, Cy5-streptavidin, from the average of three arrays
[7] = 5-mer L-peptide library, from the average of three arrays
[8] = average of three arrays, L-peptide 5-mer library

Molecule: NC(=O)CC[C@@H]1NC(=O)[C@H](Cc2c[nH]c3ccccc23)NC(=O)[C@H]2CCCN2C(=O)[C@H](CCC(N)=O)NC(=O)[C@H](CC(N)=O)NC1=O [NQpWQ (head-to-tail cyclic)] (cyclo(NQ[dP]WQ))
- type of SPR binding kinetics [1]: fast on/fast off
- fluorescence signal intensity on cyclic discovery array [2]: highest fluorescence signal intensity

Molecule: SAWSHPQFEK [NH2-SAWSHPQFEK-COOH, reference compound]
- type of SPR binding kinetics [1]: fast on/fast off

Molecule: NC(=O)CC[C@H](NC(=O)[C@H](Cc1c[nH]c2ccccc12)NC(=O)[C@H]1CCCN1C(=O)[C@H](CCC(N)=O)NC(=O)[C@@H](N)CC(N)=O)C(=O)O [NH2-NQpWQ-COOH] (H-NQ[dP]WQ-OH)
- binding in SPR ([1]; peptide concentrations of ≤2 mM): no measurable binding

Molecule: EWVHPQFEQKAK-NH2 [NH2-EWVHPQFEQKAK-amide]
- type of SPR binding kinetics [1]: fast on/fast off

Molecule: H-GNSFDDWLASKG-NH2
- type of SPR binding kinetics [1]: irreversible binding kinetics
- equilibrium dissociation constant (Kd) ([1]; SPR, streptavidin amine-coupled to CM5 chip, peptides in HBS-EP+, steady-state affinity for fast on/fast off peptides, otherwise 1:1 binding model): irreversible binding

Molecule: AFPDYLAEYHGG-NH2 [NH2-AFPDYLAEYHGG-amide]
- fold improvement of Kd over the HPQ peptide also developed in this study ([1]; SPR Kd versus EWVHPQFEQKAK): 100 fold
- fold improvement of Kd over Strep-tag II HPQ ([1]; SPR Kd versus Strep-tag II HPQ): 1,000 fold

Molecule: YHPQN
- S/B (signal to background ratio) [3, 4]: 176.5

Molecule: HPMFR
- S/B [3, 5]: 5.2

Molecule: HPVPP
- S/B [3, 5]: 12.4

Molecule: RHPQD
- S/B (signal to background ratio) [3, 4]: 36.1

Molecule: VTHPQ
- S/B (signal to background ratio) [3, 6]: 113.4

Molecule: PHHPQ
- S/B (signal to background ratio) [3, 4]: 140.8

Molecule: MGNHF [L-amino acid 5-mer array peptide]
- S/B (signal to background ratio) [3, 7]: 4.3
- S/B (signal to background ratio) [3, 8]: 4.3

Molecule: LHPQW
- S/B [3, 5]: 12.4

Molecule: GHPQA
- S/B (signal to background ratio) [3, 6]: 110.5

Molecule: QHPQS
- S/B (signal to background ratio) [3, 6]: 87.0

Molecule: HHPQV
- S/B (signal to background ratio) [3, 6]: 71.9

Molecule: YFHPM
- S/B (signal to background ratio) [3, 6]: 69.8

Molecule: LGHPQ
- S/B (signal to background ratio) [3, 4]: 171.2

Molecule: TMHPM
- S/B (signal to background ratio) [3, 4]: 25.5

Molecule: WHHPQ
- S/B (signal to background ratio) [3, 4]: 200.9

Molecule: HPQPQ
- S/B (signal to background ratio) [3, 7]: 4.4

Molecule: NGHPM
- S/B (signal to background ratio) [3, 4]: 54.5

Molecule: WEHPM
- S/B (signal to background ratio) [3, 6]: 69.6

Molecule: IHPQW
- S/B [3, 5]: 12.0

Molecule: HPQKY
- S/B [3, 5]: 5.5

Molecule: FDAWL [L-amino acid 5-mer array peptide]
- S/B (signal to background ratio) [3, 8]: 11.9
- S/B [3, 5]: 11.9

Molecule: THPQG
- S/B (signal to background ratio) [3, 4]: 125.0

Molecule: HPQKF
- S/B (signal to background ratio) [3, 7]: 4.8

Molecule: LNHPQ
- S/B (signal to background ratio) [3, 4]: 152.2

Molecule: NHPQS
- S/B (signal to background ratio) [3, 6]: 70.7

Molecule: HPMNY
- S/B (signal to background ratio) [3, 7]: 4.6

Molecule: NHPQF
- S/B (signal to background ratio) [3, 6]: 99.9
